The text below walks through data of the supplement of paper PMC10331698.

± gives the standard deviation of the averaged measurements.

Assay in all cases: level (log10 ratio to DMSO vehicle control); higher = higher biomarker level / cell amount than vehicle control
Compound in experiment [1]: CO[Si](C)(CCC(F)(F)C(F)(F)C(F)(F)C(F)(F)C(F)(F)C(F)(F)F)OC [Dimethoxymethyl((perfluorohexyl)ethyl)silane] (in DMSO)
The protocol:
(§1)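 BioMAP Diversity Plus panel of 12 human primary cell co-culture systems (3C, 4H, LPS, SAg, BT, BF4T, BE3C, CASM3C, HDF3CGF, KF3CT, MyoF, Mphg). Compounds were added 1 h before stimulation and left for 24 h (MyoF 48 h; BT 72 h for soluble read-outs or 6 d for IgG). Biomarkers were read by ELISA, cytotoxicity by SRB, PBMC viability and proliferation by Alamar Blue. Each well value was divided by the mean of 8 DMSO control wells on the same plate and log10 transformed; duplicate blinded samples were tested at 4 concentrations.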

Compound in experiment [2]: NS(=O)(=O)C(F)(F)C(F)(F)C(F)(F)C(F)(F)C(F)(F)C(F)(F)C(F)(F)C(F)(F)F [Perfluorooctanesulfonamide] (in DMSO)
How it is done: as §1

Compound in experiment [3]: OCCC(F)(F)C(F)(F)C(F)(F)C(F)(F)F [4:2 Fluorotelomer alcohol] (in DMSO)
How it is done:
as §1

Compound in experiment [4]: CN(C(=O)C(F)(F)C(F)(F)C(F)(F)F)[Si](C)(C)C [N-Methyl-N-trimethylsilylheptafluorobutyramide] (in DMSO)
The protocol: as §1

Compound in experiment [5]: OCC(F)(F)OC(F)(F)C(F)(F)OC(F)(F)C(F)(F)OC(F)(F)CO [1H,1H,11H,11H-Perfluorotetraethylene glycol] (in DMSO)
How it is done:
as §1

Compound in experiment [6]: O=C(O)CCC(F)(C(F)(F)F)C(F)(F)F [4,4-bis(Trifluoromethyl)-4-fluoropropanoic acid] (in DMSO)
How it is done:
as §1

Compound in experiment [7]: O=C(O)C=C(C(F)(F)F)C(F)(F)F [3,3-Bis(trifluoromethyl)-2-propenoic acid] (in DMSO)
The protocol: as §1

Compound in another experiment: O=C(O)C(F)(F)C(F)(F)C(F)(F)C(F)(F)C(F)(F)C(F)(F)C(F)(F)C(F)(F)C(F)(F)C(F)(F)F [Perfluoroundecanoic acid] (in DMSO)
The following applies: 6700 nM. The protocol:
as §1

Turning to BE3C:uPA, the “level (log10)” value in experiment [1] (6700 nM) was 0.0115 ± 0.011; in experiment [1] (20000 nM), -0.0055 ± 0.013; in experiment [2] (6700 nM), -0.0065 ± 0.013; in experiment [2] (20000 nM), 0.0145 ± 0.0064; in experiment [3] (6700 nM), -0.032 ± 0.065; in experiment [3] (20000 nM), -0.014 ± 0.058. Also, the “level (log10)” value was 0.014 ± 0.027 in experiment [3] (60000 nM); 0.0045 ± 0.032 in experiment [4] (6700 nM); -0.0105 ± 0.026 in experiment [4] (20000 nM); 0.015 ± 0.0071 in experiment [4] (60000 nM); -0.0105 ± 0.011 in experiment [5] (6700 nM); 0.0055 ± 0.013 in experiment [5] (20000 nM). For the same test system, the “level (log10)” value is -0.0075 ± 0.0021 in experiment [5] (60000 nM); -0.01 ± 0.038 in experiment [6] (6700 nM); -0.021 ± 0.031 in experiment [6] (20000 nM); -0.0355 ± 0.052 in experiment [6] (60000 nM); -0.0205 ± 0.011 in experiment [7] (6700 nM); -0.015 ± 0.0099 in experiment [7] (20000 nM). Moreover, the “level (log10)” value in experiment [7] (60000 nM) was -0.0045 ± 0.018; in the experiment with Perfluoroundecanoic acid it was 0.0255 ± 0.00071.
With CASM3C:CCL2/MCP-1, the “level (log10)” value in experiment [1] (6700 nM) was -0.013; in experiment [1] (20000 nM), 0.02 ± 0.016; in experiment [2] (6700 nM), 0.01 ± 0.013; in experiment [2] (20000 nM), 0.01 ± 0.023; in experiment [3] (6700 nM), -0.023 ± 0.038; in experiment [3] (20000 nM), -0.0055 ± 0.039. Also, the “level (log10)” value in experiment [3] (60000 nM) is -0.008 ± 0.05; in experiment [4] (6700 nM), -0.0115 ± 0.0064; in experiment [4] (20000 nM), -0.001 ± 0.02; in experiment [4] (60000 nM), 0.0165 ± 0.013; in experiment [5] (6700 nM), 0.0125 ± 0.012; in experiment [5] (20000 nM), -0.007 ± 0.017. In addition, the “level (log10)” value is -0.004 ± 0.017 in experiment [5] (60000 nM); -0.016 ± 0.013 in experiment [6] (6700 nM); -0.016 ± 0.0085 in experiment [6] (20000 nM); 0.0165 ± 0.039 in experiment [6] (60000 nM); -0.03 ± 0.0028 in experiment [7] (6700 nM); -0.0425 ± 0.00071 in experiment [7] (20000 nM). Also, the “level (log10)” value was -0.0465 ± 0.022 in experiment [7] (60000 nM) and 0.0065 ± 0.015 with Perfluoroundecanoic acid.
As to CASM3C:CD87/uPAR, the “level (log10)” value in experiment [1] (6700 nM) is 0.007 ± 0.011; in experiment [1] (20000 nM) it was -0.0045 ± 0.026; in experiment [2] (6700 nM), -0.007 ± 0.031; in experiment [2] (20000 nM) it was -0.0055 ± 0.026; in experiment [3] (6700 nM) it was 0.0005 ± 0.023; in experiment [3] (20000 nM) it was 0.007 ± 0.013. Also, the “level (log10)” value was -0.003 ± 0.021 in experiment [3] (60000 nM); -0.016 ± 0.042 in experiment [4] (6700 nM); -0.028 ± 0.025 in experiment [4] (20000 nM); -0.012 ± 0.0057 in experiment [4] (60000 nM); -0.019 ± 0.024 in experiment [5] (6700 nM); -0.026 ± 0.034 in experiment [5] (20000 nM). Further, the “level (log10)” value is -0.011 ± 0.018 in experiment [5] (60000 nM); 0.027 ± 0.0028 in experiment [6] (6700 nM); 0.0265 ± 0.013 in experiment [6] (20000 nM); 0.03 ± 0.024 in experiment [6] (60000 nM); -0.0235 ± 0.023 in experiment [7] (6700 nM); -0.029 ± 0.031 in experiment [7] (20000 nM). Besides, the “level (log10)” value is -0.031 ± 0.023 in experiment [7] (60000 nM) and -0.0285 ± 0.0078 with Perfluoroundecanoic acid.
As for CASM3C:CD106/VCAM-1, the “level (log10)” value is -0.0265 ± 0.012 in experiment [1] (6700 nM); -0.0155 ± 0.005 in experiment [1] (20000 nM); -0.0185 ± 0.0021 in experiment [2] (6700 nM); -0.0405 ± 0.037 in experiment [2] (20000 nM); 0.0435 ± 0.023 in experiment [3] (6700 nM); -0.0035 ± 0.023 in experiment [3] (20000 nM). In addition, the “level (log10)” value in experiment [3] (60000 nM) was -0.0005 ± 0.042; in experiment [4] (6700 nM) it was -0.007 ± 0.0042; in experiment [4] (20000 nM) it was -0.027 ± 0.0057; in experiment [4] (60000 nM) it was -0.0175 ± 0.013; in experiment [5] (6700 nM), 0.025 ± 0.011; in experiment [5] (20000 nM), 0.017 ± 0.011. For the same test system, the “level (log10)” value in experiment [5] (60000 nM) is 0.032 ± 0.0085; in experiment [6] (6700 nM), -0.0265 ± 0.049; in experiment [6] (20000 nM) it was -0.0185 ± 0.056; in experiment [6] (60000 nM) it was -0.033 ± 0.0099; in experiment [7] (6700 nM), -0.152 ± 0.012; in experiment [7] (20000 nM), -0.216 ± 0.021. For the same test system, the figures for the “level (log10)” value (in experiment [7] (60000 nM); with Perfluoroundecanoic acid) were -0.284 ± 0.054 and -0.032 ± 0.034, respectively.
For the test system CASM3C:CD141/Thrombomodulin, the “level (log10)” value in experiment [1] (6700 nM) was -0.008 ± 0.0057; in experiment [1] (20000 nM), -0.015 ± 0.021; in experiment [2] (6700 nM) it was 0 ± 0.0085; in experiment [2] (20000 nM) it was 0.0505 ± 0.0078; in experiment [3] (6700 nM), -0.018 ± 0.075; in experiment [3] (20000 nM), 0.0295 ± 0.035. Moreover, the “level (log10)” value in experiment [3] (60000 nM) was 0.0295 ± 0.043; in experiment [4] (6700 nM) it was -0.0195 ± 0.025; in experiment [4] (20000 nM), -0.027 ± 0.011; in experiment [4] (60000 nM), -0.011 ± 0.0042; in experiment [5] (6700 nM) it was -0.0135 ± 0.015; in experiment [5] (20000 nM), -0.009 ± 0.0085. Further, the “level (log10)” value is 0.035 ± 0.0042 in experiment [5] (60000 nM); -0.0525 ± 0.069 in experiment [6] (6700 nM); -0.032 ± 0.041 in experiment [6] (20000 nM); 0.0035 ± 0.019 in experiment [6] (60000 nM); 0.03 ± 0.0071 in experiment [7] (6700 nM); 0.0275 ± 0.0064 in experiment [7] (20000 nM). Besides, the “level (log10)” value in experiment [7] (60000 nM) was 0.026 ± 0.0028; with Perfluoroundecanoic acid, -0.06 ± 0.12.
On to CASM3C:CD142/Tissue Factor, for which the “level (log10)” value is -0.001 ± 0.011 in experiment [1] (6700 nM); -0.0075 ± 0.005 in experiment [1] (20000 nM); 0.021 ± 0.011 in experiment [2] (6700 nM); 0.082 ± 0.04 in experiment [2] (20000 nM); -0.014 ± 0.079 in experiment [3] (6700 nM); -0.028 ± 0.0014 in experiment [3] (20000 nM). For the same test system, the “level (log10)” value was 0.0225 ± 0.046 in experiment [3] (60000 nM); -0.021 ± 0.016 in experiment [4] (6700 nM); -0.012 ± 0.0028 in experiment [4] (20000 nM); 0.0135 ± 0.026 in experiment [4] (60000 nM); -0.0165 ± 0.032 in experiment [5] (6700 nM); -0.024 ± 0.013 in experiment [5] (20000 nM). Besides, the “level (log10)” value in experiment [5] (60000 nM) was -0.0125 ± 0.0035; in experiment [6] (6700 nM), -0.0325 ± 0.047; in experiment [6] (20000 nM), -0.011; in experiment [6] (60000 nM) it was 0.0385 ± 0.049; in experiment [7] (6700 nM) it was 0.055 ± 0.018; in experiment [7] (20000 nM) it was -0.009 ± 0.041. Besides, the “level (log10)” value in experiment [7] (60000 nM) was -0.0635 ± 0.06; in the experiment with Perfluoroundecanoic acid, -0.066 ± 0.041.
